Laboratory results reported in patent US20040116397A1, “Agents and methods for the prevention of initial onset of cancers, the treatment of cancers, and the recurrence of existing cancers” (priority 2003, published 2004).
“Also recorded” adds a separate entry of the source.

Assays:
[1] = tested on: prostate cancer cell lines (LNCaP, DU145) and brain and/or nervous system cancer cell line (DAOY); assay: Cell proliferation and induction of apoptosis, 2-ME versus 16-ES; format: cell-based
From the text: Building on these findings, further experiments have helped to elucidate the structural bases for 2-ME's molecular efficacy. A number of experiments have been conducted using 2-ME and 16-epiestriol (hereinafter “16-ES”), an analogue of 2-ME that lacks the methoxy group at the second position. In a multitude of experiments, using prostate cancer cell lines (both androgen-dependent (LNCaP), and androgen-independent (DU145) cells), and a brain and/or nervous system cancer cell line (DAOY), the present inventors have studied the effects of 2-ME and 16-ES on cell proliferation and the induction of apoptosis, in a number of ways. […] Further, it also indicates efficacy of a series of compounds with various moieties at the second position in the treatment of cancer. […] Thus, the present inventors now propose a method of synthesizing a number of analogues of 2-ME that will exceed the efficacy of 2-ME in the prevention of cancer.

endothelial cell = conditions: background, reference (3); cited from earlier work
DMBA-TPA induced tumors = assay: Regression of DMBA-TPA induced tumors in mice; format: in vivo, mouse; conditions: 2 mg topically twice a week for four weeks
Description: Referring to FIG. 12, after 4 weeks, animals were sacrificed and the dorsal skin was used for histology. […] In addition, topical application of 2 mg of 2-ME during tumor initiation-promotion stage inhibited hyperplasia by about 14%. […] In addition, the present inventors have treated mice that have developed the tumors using DMBA-TPA protocol with 2 mg of 2-ME topically twice a week for four weeks to see if tumors regress. During this four-week study, we have noticed that the number of tumors reduced from 10 to 8 in one animal (one such tumor is indicated by an arrow in the mouse II—see FIG. 13) and no change in the other animal.

epidermal hyperplasia = assay: Mouse two-stage carcinogenesis model (DMBA/TPA), skin hyperplasia; format: in vivo; conditions: 4 weeks, Sencar mice
From the text: To test the efficacy of 2-ME in preventing or reversing neoplastic progression, the present inventors have conducted investigations using the well-established mouse two-stage carcinogenesis model. This model was developed to study the complex multistep process of epidermal carcinogenesis since initiation and promotion are involved in the development of cancer in humans. […] Although treatment of mouse skin with a single large dose of DMBA can induce papillomas in about 10-20 weeks and carcinomas in about 20-60 weeks, repetitive doses are necessary to induce tumors at lower levels. No tumors are formed at a sub-threshold dose of DMBA. However, if TPA is applied to the mice initiated with a sub threshold dose of DMBA, multiple papillomas appear after a short latency period, followed by squamous cell carcinomas after a longer period. Tumors cannot be induced with repetitive treatment of TPA in the absence of initiation. Such phenotypic changes produced in the epidermis by TPA treatment are critical for neoplastic progression. One such characteristic feature of neoplastic progression is hyperplasia.
Female Sencar mice were divided into 7 groups each with 5 animals. […]

p53 in LNCaP cells = assay: p53 EMSA and Western blot of whole cell extracts; format: cell-based
Description: (§1) FIG. 4 depicts an electrophoretic mobility shift assay (EMSA) of whole cell extracts (prepared from LNCaP and DU145 cells that were untreated (C) or treated (T) with 3 μM 2-ME for 48 h) using p53 consensus oligonucleotide as radiolabled probe. The indicated amounts (μg) of the extract was incubated with approximately 0.2 ng of labeled probe and the DNA-protein complexes were resolved by 4% non-denaturing gel electrophoresis. Unbound (F) and bound complexes (B) are indicated. Lane 1 is free probe; lane 2, 4, 6 and 8 are with 2.5 μg protein; lanes 3, 5, 7 and 9 are with 5 μg protein. Lanes 2, 3, 6 and 7 are untreated; lanes 4, 5, 8 and 9 are treated.
FIG. 5 depicts a Western blot analysis of whole cell extracts from LNCaP and DU145 cells following treatment with 2-ME for 48 hours using a p53 antibody (FL-393, Santa Cruz). 25 μg of extract was fractionated on 10% denaturing gel and transferred to nitrocellulose membrane. After blocking the membrane, it was incubated for 2 hours with the p53 antibody. This was followed by incubation with horseradish peroxidase-conjugated anti-rabbit IgG antibody (Sigma) in the blocking solution. Bound antibody was detected by Supersignal West Pico Chemiluminescent Substrate, following the manufacturer's directions (Pierce, Rockford, Ill.). […]

p53 in DU145 cells = assay: p53 EMSA of whole cell extracts; format: cell-based; conditions: DU145 extract, 3 μM, 48 h
Description: as §1
As shown in FIG. 4 (Electrophoretic mobility shift assay (EMSA) of extracts prepared from LNCaP and DU145 cells following treatment with 2-ME using p53 oligonucleotide probe) and FIG. 5 (Western blot analysis of extracts following 2-ME treatment with p53 antibody), the proteins from LNCaP and DU145 cells bound to the p53 consensus sequence (FIG. 4, lanes 2 and 3). […] One would expect to see induced expression of p53 following 2-ME treatment, if it is involved in mediating apoptosis.

LNCaP cells = assay: Cell growth, CELLTITER96 AQUEOUS ONE tetrazolium assay; format: cell-based; conditions: for inhibition of growth: 72 hours
Description: (§2) Referring to FIG. 1, actively growing LNCaP and DU145 cells were plated in 96-well plates at a density of 10^5 cells per well. After 24 hours in a 37° C. incubator with 5% CO2, the cells were treated with the indicated concentration of 2-ME. Control cells received only the vehicle (DMSO). Cell growth was monitored every 24 hours using the […]96 AQUEOUS ONE solution assay containing a tetrazolium compound (Promega Corporation, Madison, Wis.).
(§3) The assay is based on the principle that actively growing cells generate reducing equivalents such as NADH that is necessary for the cells to reduce the tetrazolium compound to formazan product that is detected by measuring the absorbance at […]. Increase in absorbance indicates cell viability.
(§4) The data reflected in FIG. 1 represents an average of five replicates and the experiment was conducted twice. […] It is known that there are differences of AR and p53 between these two cell types.
Cells were treated with either eugenol (0.25, 0.5, 0.75 or 1 mM) or 2-ME (0.5, 1, 2 or 3 mM) or both (0.25, 0.5, 0.75 or 1 mM of eugenol along with 0.5 mM of 2-ME). Cell growth was measured following 72 hours of treatment as described above.

DU145 cells [2] = assay: as above; format: cell-based
Description: as §2, §3, §4

DU145 cells [3] = assay: Cell cycle distribution by flow cytometric analysis (Krishan stain); format: cell-based; conditions: DU145, 3 μM, 16 hours
Description: Referring to FIG. 3, since 2-ME inhibited the growth of LNCaP and DU145 cells, the present inventors set out to examine whether 2-ME treatment altered the distribution of cells during cell cycle progression. Logarithmically growing DU145 cells were plated in 60 mm dishes as described above at a density of 10^5 cells per dish. After 24 hours of growth at 37° C. in an incubator with 5% CO2, half the dishes were treated with 3 μM of 2-ME and the other half was left untreated. Cells were observed every 24 hours for morphological changes following treatment with 2-ME. After 16 hours of incubation cells were harvested by trypsinization and the cell pellet was resuspended in 1 ml of Krishan stain and subjected to flow cytometric analysis at the Flow Cytometry facility of the University of Colorado Comprehensive Cancer Center, Denver, Colo. […] This could be due to alteration of expression and/or activities of cell cycle regulatory proteins in the G2/M phase.

C[C@]12CC[C@@H]3c4ccc(O)cc4CC[C@H]3[C@@H]1C[C@H](O)[C@@H]2O [16-ES, 16-epiestriol]
inhibition of cancerous cell growth [1]: does not

COc1cc2c(cc1O)CC[C@@H]1[C@@H]2CC[C@]2(C)[C@@H](O)CC[C@@H]12 [2-ME, 2-methoxyoestradiol]
endothelial cell proliferation (endothelial cell): inhibit endothelial cell proliferation
size of the tumors (DMBA-TPA induced tumors): reduction in the size of the tumors
number of tumors after treatment (DMBA-TPA induced tumors; one animal, reduced from 10): 8
number of tumors, other animal (DMBA-TPA induced tumors; other animal): no change
reduction of hyperplasia (epidermal hyperplasia; topical 2 mg 5 min before DMBA application): 26%
inhibition of hyperplasia (epidermal hyperplasia; topical 2 mg during tumor initiation-promotion stage): about 14%
DNA-binding activity to p53 consensus sequence (EMSA) (p53 in LNCaP cells; 3 μM, 48 h): lost their binding activity
p53 expression (Western blot) (p53 in LNCaP cells; 48 hours): decrease in its expression
loss of DNA-binding activity to p53 consensus sequence (EMSA) (p53 in DU145 cells): not as dramatic as that of LNCaP extracts
inhibition of growth (LNCaP cells; 0.5 mM of 2-ME): about 20%
inhibition of cell proliferation (LNCaP cells; 2-ME 0.5 to 5 μM, monitored every 24 hours): dose-dependent inhibition of cell proliferation
inhibition of cell proliferation (DU145 cells [2]; DU145, 2-ME 0.5 to 5 μM, monitored every 24 hours, less sensitive than LNCaP): dose-dependent inhibition of cell proliferation
population of cells in S phase (DU145 cells [3]): no significant change
G2/M population following treatment (DU145 cells [3]; untreated 23%): 46%
G1 population following treatment (DU145 cells [3]; untreated 71%): 46%
inhibition of cancerous cell growth [1]: significantly inhibits cancerous cell growth; also recorded: inhibits the growth
pro-apoptotic effects [1]: has pro-apoptotic effects

C=CCc1ccc(O)c(OC)c1 [eugenol]
inhibition of growth (LNCaP cells; 0.25 mM of eugenol): about 30%
IC50 (LNCaP cells; Homo sapiens, read-out: concentration necessary for 50% inhibition of growth): ~750 µM
IC50 (DU145 cells [2]; Homo sapiens, DU-145, DU145 cells, read-out: concentration necessary for 50% inhibition of growth): > 2000 µM
